# Entries after “also recorded” stand apart in the source; their conditions may differ.
# Test system: HeLa cells infected with NC101
# Experiment: DNA adduct detection by LC-MS
# Format: cell-based, human
# Conditions: 1 μM 3
# Method: DNA adduct detection. Infections for DNA adduct detection were carried out using the protocol described above in 6-well plates where all volumes and cell numbers were increased by a factor of 4 accordingly. After trypsinization, cell pellets were frozen at −80° C. until analysis. DNA was isolated from cells as previously reported.^15 DNA samples (100 μL, 31-48 μg) in silanized glass vials were incubated at 80° C. for 1 hour. After the incubation, samples were allowed to cool to room temperature, and volumes were increased to 200 μL by adding LC-MS grade water. Samples were filtered using a Centrifree Ultrafiltration Device (30K molecular weight, Millipore Sigma) at 2000× g for 15 minutes. Samples were dried under vacuum and stored at −20° C. Mass spectrometric data was acquired with the following conditions. The dried samples were reconstituted in 10 μL of H2O and 4 μL of the resulting solution were injected onto an UltiMate 3000 RSLCnano UPLC (Thermo Fisher Scientific) system equipped with a 5 μL injection loop. Separation was performed with a capillary column (75 μm ID, 20 cm length, 10 μm orifice) created by hand packing a commercially available fused-silica emitter (New Objective, Woburn, MA) with 5 μm Luna C18 bonded separation media (Phenomenex, Torrance, CA). […]
structure (smiles),measurement,value
CC1(C)OB([C@@H](CC(N)=O)NC(=O)CCCc2ccccc2)OC1(C)C [Compound 3],colibactin-derived DNA adduct formation,could effectively suppress formation of a colibactin-derived DNA adduct; also recorded: sufficient to suppress adduct formation to a degree similar to genetic deletion of clbP; also recorded: prevents

# From patent US12115176B2, “Methods and compositions relating to ClbP inhibition” (PRESIDENT AND FELLOWS OF HARVARD COLLEGE, priority 2021, dated 2024)
